Holding throughout (assay): relative viability (nuclei count vs DMSO), 5 days (fraction); higher = more cells survive
Compound in the assay “Sunitinib + Phenformin”: CCN(CC)CCNC(=O)c1c(C)[nH]c(/C=C2\C(=O)Nc3ccc(F)cc32)c1C [Sunitinib] + N=C(N)NC(=N)NCCc1ccccc1 [Phenformin] (partner 250 µM)
Summed up: (§1)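 Lung cancer cell lines were seeded in 1536-well plates and dosed by pin tool the next day, with either a single drug or a fixed anchor-drug dose combined with five library-drug doses (not always all listed) spaced in √10 steps. Five days later, one step fixed the cells and stained their nuclei (final 0.05% Triton X-100, 1% formaldehyde, 1 ug/ml Hoechst), and nuclei were counted on 4× images. Relative viability is the nuclei count in treated wells divided by the count in vehicle wells, and each value is the median of duplicate plates.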

Compound in the assay “Sunitinib + Pemetrexed”: CCN(CC)CCNC(=O)c1c(C)[nH]c(/C=C2\C(=O)Nc3ccc(F)cc32)c1C [Sunitinib] + Nc1nc2[nH]cc(CCc3ccc(C(=O)N[C@@H](CCC(=O)O)C(=O)O)cc3)c2c(=O)[nH]1 [Pemetrexed] (partner 0.2 µM)
The procedure, abridged:
as §1

Compound in the assay “Sunitinib + Navitoclax”: CCN(CC)CCNC(=O)c1c(C)[nH]c(/C=C2\C(=O)Nc3ccc(F)cc32)c1C [Sunitinib] + CC1(C)CCC(c2ccc(Cl)cc2)=C(CN2CCN(c3ccc(C(=O)NS(=O)(=O)c4ccc(N[C@H](CCN5CCOCC5)CSc5ccccc5)c(S(=O)(=O)C(F)(F)F)c4)cc3)CC2)C1 [Navitoclax] (partner 0.5 µM)
The procedure, abridged:
as §1

Compound in the assay “Sunitinib + Trametinib”: CCN(CC)CCNC(=O)c1c(C)[nH]c(/C=C2\C(=O)Nc3ccc(F)cc32)c1C [Sunitinib] + CC(=O)Nc1cccc(-n2c(=O)n(C3CC3)c(=O)c3c(Nc4ccc(I)cc4F)n(C)c(=O)c(C)c32)c1 [Trametinib] (partner 0.02 µM)
The procedure, abridged: as §1

The source of these data is the supplement of paper PMC10307832.

Consider CAL-12T, for which the relative viability with Sunitinib + Phenformin (first compound 0.02 µM) was 0.515; with Sunitinib + Phenformin (first compound 0.06325 µM), 0.648; in the assay with Sunitinib + Phenformin (first compound 0.2 µM), 0.591; in the assay with Sunitinib + Phenformin (first compound 0.6325 µM), 0.702; with Sunitinib + Phenformin (first compound 2 µM) it was 0.518; in the assay with Sunitinib + Pemetrexed (first compound 0.02 µM) it was 1.06. The relative viability with Sunitinib + Pemetrexed (first compound 0.06325 µM) came out at 1.17; in the assay with Sunitinib + Pemetrexed (first compound 0.2 µM), 1.17; in the assay with Sunitinib + Pemetrexed (first compound 2 µM), 1.34; with Sunitinib + Navitoclax (first compound 0.02 µM) it was 1.18; in the assay with Sunitinib + Navitoclax (first compound 0.06325 µM), 1.32; with Sunitinib + Navitoclax (first compound 0.2 µM) it was 1.44. The relative viability with Sunitinib + Navitoclax (first compound 0.6325 µM) was 1.36; with Sunitinib + Navitoclax (first compound 2 µM) it was 1.36; in the assay with Sunitinib + Trametinib (first compound 0.02 µM), 0.322; with Sunitinib + Trametinib (first compound 0.06325 µM), 0.356; with Sunitinib + Trametinib (first compound 0.2 µM), 0.4; with Sunitinib + Trametinib (first compound 0.6325 µM), 0.407. In addition, in the assay with Sunitinib + Trametinib (first compound 2 µM), the relative viability came to 0.268.

With COR-L23, the relative viability with Sunitinib + Phenformin (first compound 0.02 µM) amounted to 0.421; with Sunitinib + Phenformin (first compound 0.06325 µM), 0.482; with Sunitinib + Phenformin (first compound 0.2 µM) it was 0.469; in the assay with Sunitinib + Phenformin (first compound 0.6325 µM), 0.443; with Sunitinib + Phenformin (first compound 2 µM), 0.461; with Sunitinib + Pemetrexed (first compound 0.02 µM), 0.207. The relative viability in the assay with Sunitinib + Pemetrexed (first compound 0.06325 µM) stood at 0.196; with Sunitinib + Pemetrexed (first compound 0.2 µM) it was 0.196; in the assay with Sunitinib + Pemetrexed (first compound 0.6325 µM), 0.199; with Sunitinib + Pemetrexed (first compound 2 µM), 0.216; with Sunitinib + Navitoclax (first compound 0.02 µM), 0.966; with Sunitinib + Navitoclax (first compound 0.06325 µM), 1.08. Further, the relative viability was determined as 1.04 in the assay with Sunitinib + Navitoclax (first compound 0.2 µM); 1.21 with Sunitinib + Navitoclax (first compound 0.6325 µM); 1.15 in the assay with Sunitinib + Navitoclax (first compound 2 µM); 0.466 with Sunitinib + Trametinib (first compound 0.02 µM); 0.57 in the assay with Sunitinib + Trametinib (first compound 0.06325 µM); 0.548 in the assay with Sunitinib + Trametinib (first compound 0.2 µM). In addition, the relative viability was determined as 0.656 with Sunitinib + Trametinib (first compound 0.6325 µM) and 0.547 in the assay with Sunitinib + Trametinib (first compound 2 µM).

Regarding BEN, the relative viability with Sunitinib + Phenformin (first compound 0.02 µM) is 0.277; with Sunitinib + Phenformin (first compound 0.06325 µM), 0.266; in the assay with Sunitinib + Phenformin (first compound 0.2 µM) it was 0.267; with Sunitinib + Phenformin (first compound 0.6325 µM), 0.275; in the assay with Sunitinib + Phenformin (first compound 2 µM) it was 0.265; with Sunitinib + Pemetrexed (first compound 0.02 µM) it was 0.812. Besides, the relative viability with Sunitinib + Pemetrexed (first compound 0.06325 µM) turned out to be 0.862; with Sunitinib + Pemetrexed (first compound 0.6325 µM), 0.742; in the assay with Sunitinib + Pemetrexed (first compound 2 µM), 0.74; in the assay with Sunitinib + Navitoclax (first compound 0.02 µM), 0.0567; with Sunitinib + Navitoclax (first compound 0.06325 µM), 0.0707; with Sunitinib + Navitoclax (first compound 0.2 µM) it was 0.072. The relative viability worked out at 0.0591 with Sunitinib + Navitoclax (first compound 0.6325 µM); 0.0799 with Sunitinib + Navitoclax (first compound 2 µM); 0.9 with Sunitinib + Trametinib (first compound 0.02 µM); 1.06 in the assay with Sunitinib + Trametinib (first compound 0.2 µM); 1.08 with Sunitinib + Trametinib (first compound 0.6325 µM); 1.05 in the assay with Sunitinib + Trametinib (first compound 2 µM).

Consider HCC-366, for which the relative viability with Sunitinib + Phenformin (first compound 0.02 µM) turned out to be 0.559; in the assay with Sunitinib + Phenformin (first compound 0.06325 µM) it was 0.624; with Sunitinib + Phenformin (first compound 0.2 µM), 0.644; in the assay with Sunitinib + Phenformin (first compound 0.6325 µM) it was 0.599; with Sunitinib + Phenformin (first compound 2 µM), 0.544; with Sunitinib + Pemetrexed (first compound 0.02 µM), 0.154. Further, the relative viability with Sunitinib + Pemetrexed (first compound 0.06325 µM) is 0.168; with Sunitinib + Pemetrexed (first compound 0.2 µM) it was 0.168; with Sunitinib + Pemetrexed (first compound 0.6325 µM) it was 0.194; in the assay with Sunitinib + Pemetrexed (first compound 2 µM), 0.497; in the assay with Sunitinib + Navitoclax (first compound 0.02 µM), 0.963; in the assay with Sunitinib + Navitoclax (first compound 0.06325 µM), 1.06. Also, the relative viability with Sunitinib + Navitoclax (first compound 0.6325 µM) was determined as 1.05; in the assay with Sunitinib + Navitoclax (first compound 2 µM) it was 0.971; with Sunitinib + Trametinib (first compound 0.02 µM), 0.313; with Sunitinib + Trametinib (first compound 0.06325 µM), 0.407; with Sunitinib + Trametinib (first compound 0.2 µM) it was 0.382; with Sunitinib + Trametinib (first compound 0.6325 µM) it was 0.389. For the same cell line, the relative viability with Sunitinib + Trametinib (first compound 2 µM) was 0.339.
